# Source: the supplement of paper PMC10307832
# Key:
# Test in all cases: relative viability (nuclei count vs DMSO), 5 days (fraction); higher = more cells survive
# [1] = compound: C1CNCCC1C2=CC(=NN2)C3=CC=NC=C3 + CS(=O)(=O)N1CCN(Cc2cc3nc(-c4cccc5[nH]ncc45)nc(N4CCOCC4)c3s2)CC1 [Pictilisib] (partner 1 µM)
# In short: (§1)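 Lung cancer cell lines, seeded in 1536-well plates, were treated the following day by pin tool with a single drug or with five library-drug doses (not always all listed) in √10 steps on top of a fixed anchor-drug dose. Cells were fixed and nuclei stained in one step after 5 days, and nuclei were counted. Relative viability is the nuclei count for treated wells divided by that for vehicle wells, reported as medians of duplicate plates.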
# [2] = compound: C1CNCCC1C2=CC(=NN2)C3=CC=NC=C3 + C[C@]1(O)C[C@@H](c2nc(-c3ccc4ccc(-c5ccccc5)nc4c3)c3c(N)nccn32)C1 [Linsitinib] (partner 1 µM)
# In short: as §1
# [3] = compound: C[C@@H](N)c1ccc(C(=O)Nc2ccnc3[nH]ccc23)cc1 + Cc1nc(NC(=O)N2CCC[C@H]2C(N)=O)sc1-c1ccnc(C(C)(C)C(F)(F)F)c1 [Alpelisib] (partner 2 µM)
# In short: as §1
# [4] = compound: O[C@H]1CC[C@H](Nc2ncc3nc(Nc4c(F)cc(F)cc4F)n([C@H]4CCOC4)c3n2)CC1 [Tanzisertib] + CC(C)C[C@H](NC(=O)[C@H](Cc1ccccc1)NC(=O)c1cnccn1)B(O)O [Bortezomib] (partner 0.002 µM)
# In short: as §1
cell line,measurement,setting,value
UMC-11,relative viability,[1]; first compound 0.08 µM,0.698
same,relative viability,[1]; first compound 0.8 µM,1.16
same,relative viability,[1]; first compound 2.53 µM,0.97
same,relative viability,[1]; first compound 8 µM,0.822
same,relative viability,[2]; first compound 0.08 µM,0.987
same,relative viability,[2]; first compound 0.8 µM,1.08
same,relative viability,[2]; first compound 2.53 µM,1.17
same,relative viability,[2]; first compound 8 µM,0.982
same,relative viability,[3]; first compound 0.04 µM,1.12
same,relative viability,[3]; first compound 0.1265 µM,1.05
same,relative viability,[3]; first compound 0.4 µM,1.14
same,relative viability,[3]; first compound 1.265 µM,0.997
same,relative viability,[3]; first compound 4 µM,0.467
same,relative viability,[4]; first compound 0.08 µM,0.754
same,relative viability,[4]; first compound 0.253 µM,0.749
same,relative viability,[4]; first compound 0.8 µM,0.825
same,relative viability,[4]; first compound 2.53 µM,0.709
same,relative viability,[4]; first compound 8 µM,0.946
